Measurements: US8299267B2, “(3-hydroxy-4-amino-butan-2-yl) -3- (2-thiazol-2-yl-pyrrolidine-1-carbonyl) benzamide derivatives and related compounds as beta-secretase inhibitors for treating” (CoMentis, Inc., priority 2007, dated 2012)

Tests used:
[1] = system: Aβ production in Chinese hamster ovary cells that over-express human APP695 with the London and Swedish mutations; assay: Cellular Aβ IC50 determination (Aβ40 sandwich ELISA); format: cell-based; conditions: Cricetulus griseus; Aβ40 in CHO cells over-expressing human APP695, 24 h incubation
Experimental: The potency of compounds against memapsin 2 activity was determined in a cellular assay of Aβ production. […] Chinese hamster ovary cells that over-express human APP695 with the London and Swedish mutations were seeded in multi-well plates at 10% confluency. Compounds are dissolved in DMSO to concentrations near 1 mM, and diluted into culture media to a final concentration near 4 μM (final 0.4% DMSO). Compounds were diluted serially and applied to cells in multi-well plates 48 h after seeding. Incubation was continued in 5% CO2 at 37° C. for 24 h. Aliquots were removed and assayed for Aβ40 content using a sandwich ELISA (BioSource International). Amount of Aβ40 over the range of concentration of compounds, relative to control incubations, were fit to a 4-parameter IC50 model.

[2] = target: memapsin 2 (Homo sapiens, UniProt P56817); assay: Inhibition of memapsin 2 beta-secretase activity toward fluorogenic substrate FS-2; format: biochemical; conditions: memapsin 2, pH 4, 37° C., 20 minutes pre-incubation, substrate FS-2; read-out: M2Ki
Procedure, shortened: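 Memapsin 2 was preincubated with compound 20 min at pH 4, 37 °C, then reacted with fluorogenic substrate FS-2 (MCA-SEVNLDAEFK-DNP), an APP-derived Swedish-variant peptide. Inhibition was followed kinetically by fluorescence.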

Chain of memapsin 2 (P56817 46-501): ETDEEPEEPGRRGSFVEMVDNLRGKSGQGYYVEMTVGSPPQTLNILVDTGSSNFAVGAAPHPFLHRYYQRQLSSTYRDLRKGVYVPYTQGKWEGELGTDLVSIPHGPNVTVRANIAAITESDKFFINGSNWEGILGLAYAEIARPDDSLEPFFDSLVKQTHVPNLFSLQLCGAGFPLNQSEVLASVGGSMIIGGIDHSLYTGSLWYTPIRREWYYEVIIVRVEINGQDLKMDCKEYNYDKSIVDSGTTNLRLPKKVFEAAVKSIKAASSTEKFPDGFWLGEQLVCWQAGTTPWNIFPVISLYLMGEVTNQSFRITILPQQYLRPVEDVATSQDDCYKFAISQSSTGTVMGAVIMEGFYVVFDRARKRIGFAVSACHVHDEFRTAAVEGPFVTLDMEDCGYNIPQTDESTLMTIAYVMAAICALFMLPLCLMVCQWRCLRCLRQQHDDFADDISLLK

IC50 [1]	Ki [2]	Compound
< 300 nM	< 100 nM	Cc1coc([C@H]2CCCN2C(=O)c2cc(C(=O)N[C@@H](Cc3ccccc3)[C@H](O)CNCc3cncc(C(C)C)c3)cc(-c3ncco3)c2)n1 [Compound 86, N-((2S,3R)-3-hydroxy-4-((5-isopropylpyridin-3-yl)methylamino)-1-phenylbutan-2-yl)-3-((R)-2-(4-methyloxazol-2-yl)pyrrolidine-1-carbonyl)-5-(oxazol-2-yl)benzamide]
< 300 nM	< 100 nM	Cc1coc([C@H]2CCCN2C(=O)c2cncc(C(=O)N[C@@H](Cc3ccccc3)[C@H](O)CNCc3cncc(C(C)C)c3)c2)n1 [Compound 71, N-((2S,3R)-3-hydroxy-4-((5-isopropylpyridin-3-yl)methylamino)-1-phenylbutan-2-yl)-5-((R)-2-(4-methyloxazol-2-yl)pyrrolidine-1-carbonyl)nicotinamide]
< 300 nM	< 100 nM	Cc1coc([C@H]2CCCN2C(=O)c2cc(C(=O)N[C@@H](Cc3ccccc3)[C@H](O)CNCc3cncc(C(C)(C)F)c3)cc(-c3ncco3)c2)n1 [Compound 90, N-((2S,3R)-4-((5-(2-fluoropropan-2-yl)pyridin-3-yl)methylamino)-3-hydroxy-1-phenylbutan-2-yl)-3-((R)-2-(4-methyloxazol-2-yl)pyrrolidine-1-carbonyl)-5-(oxazol-2-yl)benzamide]
< 300 nM	< 100 nM	Cc1cc(C(=O)N[C@@H](Cc2ccccc2)[C@H](O)CNCc2cncc(C(C)(C)F)c2)cc(C(=O)N2CCC[C@@H]2c2nc(C)cs2)c1 [Compound 42, N-((2S,3R)-4-((5-(2-fluoropropan-2-yl)pyridin-3-yl)methylamino)-3-hydroxy-1-phenylbutan-2-yl)-3-methyl-5-((R)-2-(4-methylthiazol-2-yl)pyrrolidine-1-carbonyl)benzamide]
< 300 nM	< 100 nM	COc1cc(C(=O)N[C@@H](Cc2ccccc2)[C@H](O)CNCc2cccc(C(F)(F)F)c2)cc(C(=O)N2CCC[C@@H]2c2nc(C)co2)c1 [Compound 93, N-((2S,3R)-3-hydroxy-1-phenyl-4-(3-(trifluoromethyl)benzylamino)butan-2-yl)-3-methoxy-5-((R)-2-(4-methyloxazol-2-yl)pyrrolidine-1-carbonyl)benzamide]
< 300 nM	< 100 nM	Cc1coc([C@H]2CCCN2C(=O)c2cc(CF)cc(C(=O)N[C@@H](Cc3ccccc3)[C@H](O)CNCc3cncc(C(C)(C)F)c3)c2)n1 [Compound 78, 3-(fluoromethyl)-N-((2S,3R)-4-((5-(2-fluoropropan-2-yl)pyridin-3-yl)methylamino)-3-hydroxy-1-phenylbutan-2-yl)-5-((R)-2-(4-methyloxazol-2-yl)pyrrolidine-1-carbonyl)benzamide]
< 300 nM	< 100 nM	Cc1csc([C@H]2CCCN2C(=O)c2cc(C(=O)N[C@@H](Cc3ccccc3)[C@H](O)CNCc3cncc(C(C)C)c3)cc(-c3cnco3)c2)n1 [Compound 33, N-((2S,3R)-3-hydroxy-4-((5-isopropylpyridin-3-yl)methylamino)-1-phenylbutan-2-yl)-3-((R)-2-(4-methylthiazol-2-yl)pyrrolidine-1-carbonyl)-5-(oxazol-5-yl)benzamide]

The remaining lines, values behind:

Compound	IC50 [1]	Ki [2]
COc1cc(C(=O)N[C@@H](Cc2ccccc2)[C@H](O)CN[C@@H](C)c2cccc(OC)c2)cc(C(=O)N2CCC[C@@H]2c2nc(C)cs2)c1 [Compound 20, N-((2S,3R)-3-hydroxy-4-((S)-1-(3-methoxyphenyl)ethylamino)-1-phenylbutan-2-yl)-3-methoxy-5-((R)-2-(4-methylthiazol-2-yl)pyrrolidine-1-carbonyl)benzamide]	< 300 nM	< 100 nM
Cc1cc(C(=O)N[C@@H](Cc2ccccc2)[C@H](O)CNCc2cccc(C(F)(F)F)c2)cc(C(=O)N2CCC[C@@H]2c2nc(C)cs2)n1 [Compound 79, N-((2S,3R)-3-hydroxy-1-phenyl-4-(3-(trifluoromethyl)benzylamino)butan-2-yl)-2-methyl-6-((R)-2-(4-methylthiazol-2-yl)pyrrolidine-1-carbonyl)isonicotinamide]	< 300 nM	< 100 nM
Cc1csc([C@H]2CCCN2C(=O)c2cc(C(=O)N[C@@H](Cc3ccccc3)[C@H](O)CNCc3cccc(C(F)(F)F)c3)cc(-c3cccc(Cl)c3)n2)n1 [Compound 91, 2-(3-chlorophenyl)-N-((2S,3R)-3-hydroxy-1-phenyl-4-(3-(trifluoromethyl)benzylamino)butan-2-yl)-6-((R)-2-(4-methylthiazol-2-yl)pyrrolidine-1-carbonyl)isonicotinamide]	301 to 500 nM	< 100 nM
Cc1csc([C@H]2CCCN2C(=O)c2cncc(C(=O)N[C@@H](Cc3ccccc3)[C@H](O)CNCc3cccc(C(F)(F)F)c3)c2)n1 [Compound 31, N-((2S,3R)-3-hydroxy-1-phenyl-4-(3-(trifluoromethyl)benzylamino)butan-2-yl)-5-((R)-2-(4-methylthiazol-2-yl)pyrrolidine-1-carbonyl)nicotinamide]	< 300 nM	< 100 nM
Cc1csc([C@H]2CCCN2C(=O)c2cncc(C(=O)N[C@@H](Cc3ccccc3)[C@H](O)CNCc3cc(Cl)cc(Cl)c3)c2)n1 [Compound 60, N-((2S,3R)-4-(3,5-dichlorobenzylamino)-3-hydroxy-1-phenylbutan-2-yl)-5-((R)-2-(4-methylthiazol-2-yl)pyrrolidine-1-carbonyl)nicotinamide]	< 300 nM	< 100 nM
Cc1csc([C@H]2CCCN2C(=O)c2cc(C(=O)N[C@@H](Cc3ccccc3)[C@H](O)CNCc3cccc(C(F)(F)F)c3)cc(C(F)F)c2)n1 [Compound 57, 3-(difluoromethyl)-N-((2S,3R)-3-hydroxy-1-phenyl-4-(3-(trifluoromethyl)benzylamino)butan-2-yl)-5-((R)-2-(4-methylthiazol-2-yl)pyrrolidine-1-carbonyl)benzamide]	< 300 nM	< 100 nM
COc1cccc(CNC[C@@H](O)[C@H](Cc2ccccc2)NC(=O)c2cc(OC)cc(C(=O)N3CCC[C@@H]3c3nc(C)cs3)c2)c1 [Compound 11, N-((2S,3R)-3-hydroxy-4-(3-methoxybenzylamino)-1-phenylbutan-2-yl)-3-methoxy-5-((R)-2-(4-methylthiazol-2-yl)pyrrolidine-1-carbonyl)benzamide]	< 300 nM	< 100 nM
Cc1cc(CNC[C@@H](O)[C@H](Cc2ccccc2)NC(=O)c2cccc(C(=O)N3CCC[C@@H]3c3nc(C)cs3)c2)on1 [Compound 65, N-((2S,3R)-3-hydroxy-4-((3-methylisoxazol-5-yl)methylamino)-1-phenylbutan-2-yl)-3-((R)-2-(4-methylthiazol-2-yl)pyrrolidine-1-carbonyl)benzamide]	301 to 500 nM	> 201 nM
Cc1csc([C@H]2CCCN2C(=O)c2cc(CF)cc(C(=O)N[C@@H](Cc3ccccc3)[C@H](O)CNCc3cncc(C(F)(F)F)c3)c2)n1 [Compound 51, 3-(fluoromethyl)-N-((2S,3R)-3-hydroxy-1-phenyl-4-((5-(trifluoromethyl)pyridin-3-yl)methylamino)butan-2-yl)-5-((R)-2-(4-methylthiazol-2-yl)pyrrolidine-1-carbonyl)benzamide]	< 300 nM	< 100 nM
Cc1cc(C(=O)N2CCC[C@@H]2c2nc(C)cs2)cc(C(=O)N[C@@H](Cc2ccccc2)[C@H](O)CNCc2cccc(C(F)(F)F)c2)n1 [Compound 68, N-((2S,3R)-3-hydroxy-1-phenyl-4-(3-(trifluoromethyl)benzylamino)butan-2-yl)-6-methyl-4-((R)-2-(4-methylthiazol-2-yl)pyrrolidine-1-carbonyl)picolinamide]	< 300 nM	< 100 nM
Cc1csc([C@H]2CCCN2C(=O)c2cc(C(=O)N[C@@H](Cc3ccccc3)[C@H](O)CNCc3cncc(C(C)C)c3)cc(-n3cccc3)c2)n1 [Compound 74, N-((2S,3R)-3-hydroxy-4-((5-isopropylpyridin-3-yl)methylamino)-1-phenylbutan-2-yl)-3-((R)-2-(4-methylthiazol-2-yl)pyrrolidine-1-carbonyl)-5-(1H-pyrrol-1-yl)benzamide]	< 300 nM	< 100 nM
Cc1csc([C@H]2CCCN2C(=O)c2cc(C(=O)N[C@@H](Cc3ccccc3)[C@H](O)CNCc3cccc(C(F)(F)F)c3)nc(N(C)C)c2)n1 [Compound 81, 6-(dimethylamino)-N-((2S,3R)-3-hydroxy-1-phenyl-4-(3-(trifluoromethyl)benzylamino)butan-2-yl)-4-((R)-2-(4-methylthiazol-2-yl)pyrrolidine-1-carbonyl)picolinamide]	< 300 nM	< 100 nM
Cc1coc([C@H]2CCCN2C(=O)c2cccc(C(=O)N[C@@H](Cc3ccccc3)[C@H](O)CNCc3cccc(C(C)(C)C)c3)c2)n1 [Compound 70, N-((2S,3R)-4-(3-tert-butylbenzylamino)-3-hydroxy-1-phenylbutan-2-yl)-3-((R)-2-(4-methyloxazol-2-yl)pyrrolidine-1-carbonyl)benzamide]	< 300 nM	< 100 nM
Cc1csc([C@H]2CCCN2C(=O)c2cncc(C(=O)N[C@@H](Cc3ccccc3)[C@H](O)CNCc3cncc(C(C)C)c3)c2)n1 [Compound 27, N-((2S,3R)-3-hydroxy-4-((5-isopropylpyridin-3-yl)methylamino)-1-phenylbutan-2-yl)-5-((R)-2-(4-methylthiazol-2-yl)pyrrolidine-1-carbonyl)nicotinamide]	< 300 nM	< 100 nM
